The source of these data is paper PMC10484855, “Production, purification, and characterization of cold-active lipase from the psychrotroph Pseudomonas sp. A6” (Brazilian Journal of Microbiology, 2023).

SMILES strings stand for the structures.

The subject of the assay is T1, cold-active lipase from Pseudomonas sp. A6.
T1 construct: 65 kDa by SDS-PAGE
The assay is described as follows: spectrophotometric p-nitrophenol release at […] nm; Lineweaver-Burk plot. The class given is biochemical. As to conditions: 10 °C; phosphate buffer; pH of the Km assay not stated; unit printed ambiguously as 'm mol'.

As to `CCCCCCCCCCCC(=O)Oc1ccc([N+](=O)[O-])cc1` [p-nitrophenyl laurate], the Km was 6.6 * 10^−4 m mol L^−1.
